Experimental data: patent publication US5994365A, “Substituted diazaanthracene compounds having pharmaceutical utility” (Diazans Limited, priority 1998, dated 1999)

What was measured:
S. aureus = test: Minimal bactericidal concentration (MBC), 99.9% kill; type: cell-based, Staphylococcus aureus
Procedure: (§1) Broth microdilution was performed according to NCCLS guidelines. Microdilution panels were prepared using doubling dilutions of the dimer in ~250 μl plastic, 96-well trays. Inoculum suspension equal to a 0.5 McFarland standard were further diluted and added to the microdilution trays to achieve a final inoculum of 5×10^5 CFU/ml (5×10^4 CFU/well). Colony counts were performed to confirm the final inoculum, as well as its purity. Each strain was also tested in a growth control well containing only MHB for viability.
(§2) Various isolates were also tested for minimal bactericidal concentration (MBC) (see Tables D and F).
(§3) Subbed clear wells (50 μl) Inoculum 5 × 10^4 /well
(§4) 99.9% kill = 50 cols/well
(§5) Subbed 50 μl of ≤5 clear wells

MRSA = test: as above; type: cell-based, Staphylococcus aureus; conditions: Table F
Procedure: as §1, §2, §5

ATCC S. epid 14990 = test: as above; type: cell-based
Procedure: as §1, §2, §5

[1] = test system: Staneg (coagulase negative Staph); test: as above; type: cell-based, Coagulase negative staphylococci; set-up: unit not given here
Procedure: as §1, §2, §3, §4, §5

P. aeruginosa = test: Broth microdilution (NCCLS guidelines), MIC; type: cell-based, Pseudomonas aeruginosa; conditions: Table A
Procedure: The dimer product of Example 15 was obtained in powder form. A stock solution of 1280 mg/L of the dimer in dimethylsulfoxide (DMSO) was prepared and stored at room temperature in a foil-wrapped screw-capped tube (10 ml). Subsequent dilutions were prepared using cation-adjusted Mueller-Hinton broth (50 mg/L Mg). […] It was resuspended upon mixing each time an aliquot was taken from the solution.
Approximately 100 varied bacterial isolates were initially collected for screening, along with 9 ATCC organisms. Forty additional strains of Staphylococcus species were subsequently screened. All isolates were identified according to generally accepted lab protocol.
as §1
Microdilution trays were incubated at 35° C. in ambient air or 5% CO2 as appropriate for 16-20 hours. After incubation, the minimal inhibitory concentration (MIC) was defined as the lowest concentration of the dimer with no evidence of growth. Since 10 or more strains of most organisms were tested; a range of MICs was determined for each organism, as well as the concentration of the dimer that inhibited 50% of the strains (MIC50) and the concentration of the dimer that inhibited 90% of the strains (MIC90).

Staphylococcus species = test: Effect of age of the dimer solution on MIC (stability of the solution); type: physicochemical; conditions: stored at RT in foil wrapped tube
Description: The dimer solution was two weeks old at this time. When the additional Staph strains were then retested using a freshly made solution of the dimer, the MICs were lower (see Table E). The stability of the solution stored at RT in a foil wrapped tube could be a variable contributing to the discrepancy between MICs.

“10,10'-bis(3,6-dimethyl-5,10-dihydro-1,8-diazaanthracen-5-one) and 5,5'-bis(3,6-dimethyl-5,10-dihydro-1,8-diazaanthracen-10-one) [Example 15]” gave an MBC (S. aureus; Table D, S. aureus 1) of 2 µg/mL, an MBC (S. aureus; Table D, S. aureus 2) of over 16 µg/mL and an MBC (S. aureus; Table D, S. aureus 3) of 16 µg/mL. It also gave an MBC (S. aureus; Table D, S. aureus 4) of 8 µg/mL, an MBC (S. aureus; Table D, S. aureus 5) of over 16 µg/mL and an MBC (S. aureus; Table D, S. aureus 6, skipped wells) of over 16 µg/mL. The MBC (S. aureus; Table D, S. aureus 7) was over 16 µg/mL, the MBC (S. aureus; Table D, S. aureus 8, skipped wells) was over 16 µg/mL and the MBC (S. aureus; Table F, ATCC S. aureus 25923) was 4 µg/mL. For the same substance, the MBC (S. aureus; Table F, ATCC S. aureus 29213, skipped wells) was over 16 µg/mL, the MBC (S. aureus; Table F, Pip/Taz S. aureus 1) was 8 µg/mL and the MBC (S. aureus; Table F, Pip/Taz S. aureus 3) was 4 µg/mL. The MBC (S. aureus; Table F, Pip/Taz S. aureus 7) was 2 µg/mL, the MBC (S. aureus; Table F, S. aureus 1, skipped wells) was 4 µg/mL and the MBC (S. aureus; Table F, S. aureus 2) was 1 µg/mL. The MBC (S. aureus; Table F, S. aureus 8, skipped wells) was at least 8 µg/mL, the MBC (S. aureus; Table G footnote, ATCC 25923, methicillin susceptible) was 4 µg/mL and the MBC (S. aureus; Table G footnote, ATCC 29213, methicillin susceptible, skipped wells) was 16 µg/mL. The MBC (MRSA; MRSA 2) was 16 µg/mL, the MBC (MRSA; MRSA 4, skipped wells) was over 16 µg/mL and the MBC (MRSA; MRSA 6) was 2 µg/mL. It also gave an MBC (ATCC S. epid 14990; Table F, ATCC S. epid 14990) of over 0.5 µg/mL, an MBC (ATCC S. epid 14990; Table G footnote, ATCC 14990 (coag neg staph)) of at least 0.5 µg/mL and an MBC ([1]; Table D, Staneg 1, skipped wells) of over 16. For the same substance, the MBC ([1]; Table D, Staneg 2, skipped wells) was over 4, the MBC ([1]; Table D, Staneg 3) was 16 and the MBC ([1]; Table D, Staneg 4) was over 16. For the same substance, the MBC ([1]; Table D, Staneg 5, skipped wells) was 16, the MBC ([1]; Table D, Staneg 6) was 8 and the MBC ([1]; Table D, Staneg 7, skipped wells) was over 16. It also gave an MBC ([1]; Table D, Staneg 8) of 16, an MBC ([1]; Table F, Staneg 1) of over 1.0 and an MBC ([1]; Table F, Staneg 4, skipped wells) of over 16. For the same substance, the MBC ([1]; Table F, Staneg 7) was 1.0, the MIC50 (P. aeruginosa; 10 strains) was over 64 µg/mL and the MIC90 (P. aeruginosa; 10 strains) was over 64 µg/mL. The “Range of MICs” value (P. aeruginosa; 10 strains) was at least 64 mg/L, the MIC (P. aeruginosa; ATCC PA 27853 (×2)) was over 64 µg/mL and the “MICs with two weeks old dimer solution vs. original screen” value (Staphylococcus species) was “MICs appeared to be significantly higher”.
